Assay results reported in patent US20210246115A1 (Bioimics AB, priority 2017, published 2021).
Values after ≈ are worked out from the molar mass of the structure shown. Where a name gives a salt, the structure may show the parent alone. Read-outs that look alike come from different tables or passages of the source.

Tests used:
[1] = tested on: Staphylococcus aureus subsp. aureus (ATCC29213); test: MIC, broth microdilution (CLSI), Staphylococcus aureus ATCC29213; assay type: cell-based; conditions: Staphylococcus aureus
[2] = tested on: Escherichia coli (ATCC25922); test: MIC, broth microdilution (CLSI), Escherichia coli; conditions: Escherichia coli, ATCC25922, read-out: E. coli ATCC 25922 MIC, Table XIII
[3] = tested on: Staphylococcus aureus (ATCC25923); test: MIC, broth microdilution (CLSI), Staphylococcus aureus ATCC25923; conditions: Staphylococcus aureus, ATCC25923, read-out: S. aureus ATCC 25923 MIC
[4] = tested on: E. coli RNase P RNA, M1 RNA; test: Inhibition of bacterial RNase P activity, IC50 determination (cleavage of pATSerUG by M1 RNA); assay type: biochemical; conditions: NI: No inhibition
[5] = ATCC29213, Table XIII, read-out: S. aureus ATCC 29213 MIC
[6] = ATCC29213, read-out: S. aureus ATCC 29213 MIC, Table XIII

| Compound | MIC [1, 5] [µg/mL] | MIC [2] [µg/mL] | MIC [3] [µg/mL] | IC50 [4] [µM] | MIC [1, 6] [µg/mL] | IC50 ([4]; hydrochloride salt) [µM] |
| --- | --- | --- | --- | --- | --- | --- |
| Cl.c1ccc(-c2ccc(CNCCc3c[nH]c4ccccc34)cc2)cc1 [Compound 24, N-([1,1′-biphenyl]-4-ylmethyl)-2-(1H-indol-3-yl)ethan-1-amine hydrochloride salt] | 6 | 46 | 6 | – | – | – |
| Cc1ccccc1C(CCNCCCN)c1cn(C2CCCCC2)c2ccccc12.Cl.Cl (stereo not drawn) [Compound 345, N1-(3-(1-cyclohexyl-1H-indol-3-yl)-3-(o-tolyl)propyl)propane-1,3-diamine hydrochloride salt] | 8 | 4 | – | 41 | – | – |
| Cc1cccc(C(CCNCCCN)c2cn(C3CCCCC3)c3ccccc23)c1 (stereo not drawn) [Compound 358, N1-(3-(1-cyclohexyl-1H-indol-3-yl)-3-(m-tolyl)propyl)propane-1,3-diamine] | 8 (≈ 19.8 µM) | 4 (≈ 9.91 µM) | – | 38 | – | – |
| Cl.Cl.NCCCNCCC(c1ccccc1)c1cn(C2CCCCC2)c2ccccc12 (stereo not drawn) [Compound 343, N1-(3-(1-cyclohexyl-1H-indol-3-yl)-3-phenylpropyl) propane-1,3-diamine hydrochloride salt] | 8 | 4 | – | 64 | – | – |
| Cc1cccc(-c2ccc3c(c2)c(C2CCCC(NC4CCNCC4)C2)cn3C2CCCCC2)c1 (stereo not drawn) [Compound 396, N-(3-(1-cyclohexyl-5-(m-tolyl)-1H-indol-3-yl)cyclohexyl)piperidin-4-amine hydrochloride salt] | – | 4 | – | 12 | 2 | – |
| Cc1cccc(C(CCNC2CCNCC2)c2cn(C3CCCCC3)c3ccccc23)c1 (stereo not drawn) [Compound 309, N-(3-(1-cyclohexyl-1H-indol-3-yl)-3-(m-tolyl)propyl)piperidin-4-amine hydrochloride salt] | – | 4 | – | 39 | 8 | – |
| NC1CCC(NCCC(c2cccc(OC(F)(F)F)c2)c2cn(C3CCCCC3)c3ccccc23)CC1 [Compound 393, (1S,4S)- -N1-(3-(1-cyclohexyl-1H-indol-3-yl)-3-(3-(trifluoromethoxy)phenyl)propyl)cyclohexane-1,4-diamine hydrochloride salt] | – | 8 | – | – | 4 | 16 |
| Cc1cccc(C(CCNC2CCNCC2)c2cn(CC3CCCCC3)c3ccc([N+](=O)[O-])cc23)c1 (stereo not drawn) [Compound 428, N-(3-(1-(cyclohexylmethyl)-5-nitro-1H-indol-3-yl)-3-(m-tolyl)propyl)piperidin-4-amine hydrochloride salt] | – | 32 | – | 15 | 4 | – |
| Cc1cccc(C(CCNCCCN)c2cn(C3CCCCC3)c3ccccc23)c1.Cl.Cl (stereo not drawn) [Compound 310, N1-(3-(1-cyclohexyl-1H-indol-3-yl)-3-(m-tolyl)propyl)propane-1,3-diamine hydrochloride salt] | 4 | 4 | – | – | – | 18 |
| Cl.Cl.NCCCNCCC(c1cc(Cl)cc(Cl)c1)c1cn(C2CCCCC2)c2ccccc12 (stereo not drawn) [Compound 349, N1-(3-(1-cyclohexyl-1H-indol-3-yl)-3-(3,5-dichlorophenyl)propyl) propane-1,3-diamine hydrochloride salt] | 2 | 4 | – | 16 | – | – |
| N#Cc1ccc2c(C(CCNC3CCC(N)CC3)c3cccc(OC(F)(F)F)c3)cn(C3CCCCC3)c2c1 [Compound 415, 3-(3-(((1S,4S)-4-aminocyclohexyl)amino)-1-(3-(trifluoromethoxy)phenyl)propyl)-1-cyclohexyl-1H-indole-6-carbonitrile hydrochloride salt] | – | 16 | – | 16 | 4 | – |
| Cc1cccc(C(CCNC2CCNCC2)c2cn(C3CCCC3)c3ccccc23)c1.Cl.Cl (stereo not drawn) [Compound 333, N-(3-(1-cyclopentyl-1H-indol-3-yl)-3-(m-tolyl)propyl)piperidin-4-amine hydrochloride salt] | 16 | 8 | – | 89 | – | – |
| Cc1ccccc1-c1ccc2c(c1)c(CCCNCCCN)cn2C1CCCCC1.Cl.Cl [Compound 362, N1-(3-(1-cyclohexyl-5-(o-tolyl)-1H-indol-3-yl)propyl)propane-1,3-diamine hydrochloride salt] | 4 | 4 | – | 8.3 | – | – |
| Cl.Cl.NCCCNCCC(c1cccc(C(F)(F)F)c1)c1cn(C2CCCCC2)c2ccccc12 (stereo not drawn) [Compound 351, N1-(3-(1-cyclohexyl-1H-indol-3-yl)-3-(3-(trifluoromethyl)phenyl)propyl)propane-1,3-diamine hydrochloride salt] | 4 | 4 | – | 16 | – | – |
| Cc1cccc(C(CCNC2CCN(C(=N)N)CC2)c2cn(C3CCCCC3)c3ccccc23)c1.Cl (stereo not drawn) [Compound 353, 4-((3-(1-cyclohexyl-1H-indol-3-yl)-3-(m-tolyl)propyl)amino)piperidine-1-carboximidamide hydrochloride salt] | 4 | 32 | – | 19 | – | – |

Further lines, with some results ahead:

| MIC [1, 5] [µg/mL] | MIC [2] [µg/mL] | MIC [3] [µg/mL] | IC50 [4] [µM] | Compound | MIC [1, 6] [µg/mL] | IC50 ([4]; hydrochloride salt) [µM] |
| --- | --- | --- | --- | --- | --- | --- |
| 4 | 4 | – | 35 | NCCCNC1CCCC(c2cn(C3CCCCC3)c3ccc(Br)cc23)C1 (stereo not drawn) [Compound 380, N1-(3-(5-bromo-1-cyclohexyl-1H-indol-3-yl)cyclohexyl)propane-1,3-diamine salt] | – | – |
| 4 | 4 | – | 6.3 | Cl.Cl.NCCCNCCCc1cn(C2CCCCC2)c2ccc(C3CCCCC3)cc12 [Compound 399, N1-(3-(1,5-dicyclohexyl-1H-indol-3-yl)propyl)propane-1,3-diamine hydrochloride salt] | – | – |
| 4 | 4 | – | 10 | Cl.Cl.N#Cc1ccc2c(C(CCNCCCN)c3cccc(OC(F)(F)F)c3)cn(C3CCCCC3)c2c1 (stereo not drawn) [Compound 410, 3-(3-((3-aminopropyl)amino)-1-(3-(trifluoromethoxy)phenyl)propyl)-1-cyclohexyl-1H-indole-6-carbonitrile salt] | – | – |
| 16 | > 128 | – | 53 | Cc1cccc(C(CCNC2CCN(C(N)=O)CC2)c2cn(C3CCCCC3)c3ccccc23)c1.Cl.Cl (stereo not drawn) [Compound 374, 4-((3-(1-cyclohexyl-1H-indol-3-yl)-3-(m-tolyl)propyl)amino)piperidine-1-carboxamide hydrochloride salt] | – | – |
| 2 | 4 | – | 8.5 | Cc1cccc(C(CCNCCCN)c2cn(CC3CCCCC3)c3ccc([N+](=O)[O-])cc23)c1 (stereo not drawn) [Compound 424, N1-(3-(1-cyclohexylmethyl)-5-nitro-1H-indol-3-yl)-3-(m-tolyl)propyl)propane-1,3-diamine hydrochloride salt] | – | – |
| 2 | 4 | – | 18 | Cc1cccc(C(CCNCCCN)c2cn(C3CCCCC3)c3ccc(-c4ccncc4)cc23)c1.Cl.Cl (stereo not drawn) [Compound 412, N1-(3-(1-cyclohexyl-5-(pyridin-4-yl)-1H-indol-3-yl)-3-(m-tolyl)propyl) propane-1,3-diamine hydrochloride salt] | – | – |
| 16 (≈ 31 µM) | 32 (≈ 61.9 µM) | – | 40 | NCCCNCCC(c1cccc(OC(F)(F)F)c1)c1cn(C2CCCCC2)c2ccc(C(N)=O)cc12 (stereo not drawn) [Compound 376, 3-(3-((3-aminopropyl)amino)-1-(3-(trifluoromethoxy)phenyl)propyl)-1-cyclohexyl-1H-indole-5-carboxamide] | – | – |
| 8 | 8 | – | 34 | Cc1cccc(C(CCNCCCN)c2cn(C3CCCCC3)c3ccc(C#N)cc23)c1.Cl.Cl (stereo not drawn) [Compound 379, 3-(3-((3-aminopropyl)amino)-1-(m-tolyl)propyl)-1-cyclohexyl-1H-indole-5-carbonitrile hydrochloride salt] | – | – |
| 4 | 4 | – | 4.7 | Cc1cccc(-c2ccc3c(c2)c(CCCNCCCN)cn3CC2CCCCC2)c1.Cl.Cl [Compound 375, N1-(3-(1-(cyclohexylmethyl)-5-(m-tolyl)-1H-indol-3-yl)propyl)propane-1,3-diamine hydrochloride salt] | – | – |
| 2 | 4 | – | 9 | Cl.Cl.N[C@H]1CC[C@H](NCCCc2cn(C3CCCCC3)c3ccc(C4CCCCC4)cc23)CC1 [Compound 398, (1r,4r)-N1-(3-(1,5-dicyclohexyl-1H-indol-3-yl)propyl)cyclohexane-1,4-diamine hydrochloride salt] | – | – |
| 2 | 8 | – | 12 | Cc1cccc(C(CCNC2CCC(N)CC2)c2cn(CC3CCCCC3)c3ccc([N+](=O)[O-])cc23)c1 [Compound 425, (1S,4S)-N1-(3-(1-(cyclohexylmethyl)-5-nitro-1H-indol-3-yl)-3-(m-tolyl)propyl) cyclohexane-1,4-diamine hydrochloride salt] | – | – |
| 2 | 4 | – | 11 | Cl.Cl.NCCCNCCC(c1cn(C2CCCCC2)c2ccc(Br)cc12)C1CCCCC1 (stereo not drawn) [Compound 429, N1-(3-(5-bromo-1-cyclohexyl-1H-indol-3-yl)-3-cyclohexylpropyl) propane-1,3-diamine hydrochloride salt] | – | – |
| 16 (≈ 32.9 µM) | > 128 | – | 130 | Cc1cccc(C(CCN[C@H]2CC[C@H](NC(N)=O)CC2)c2cn(C3CCCCC3)c3ccccc23)c1 (stereo partly drawn) [Compound 377, 1-((1R,4R)-4-((3-(1-cyclohexyl-1H-indol-3-yl)-3-(m-tolyl)propyl)amino)cyclohexyl) urea] | – | – |
| 4 | 4 | – | 20 | Cl.Cl.N#Cc1ccc2c(c1)c(C(CCNCCCN)C1CCCCC1)cn2C1CCCCC1 (stereo not drawn) [Compound 382, 3-(3-((3 - aminopropyl)amino)-1-cyclohexylpropyl)-1-cyclohexyl-1H-indole-5-carbonitrile hydrochloride salt] | – | – |
